# Counter-ions that a name gives are not always drawn.
# Test: Solubility of C21 sodium salt in lipid-based excipients (UPLC)
# Type: physicochemical
# Description: C21 sodium salt (RISE AB, Södertälje, Sweden) was mixed with various potential carriers in the proportions described in Table 5 below (mg of C21 per gram of excipient) and absolute solubility of C21 was determined, two and five days after mixing.
# The procedure was carried out by first weighing around 2.955 g of each excipient into a 20 mL headspace vial. Then, 0.045 g of C21 was added to each vial to reach a starting concentration of 15 mg/g. A magnetic stirrer was added into each mixture to stir the dispersion during the entire study (at around 300 rpm).
# Solubility was determined at room temperature in general, although some of the excipients listed below (those marked with an asterisk) are solid at room temperature, in which case solubility was determined at 60° C.
# The mixtures were observed over time to confirm excipient saturation. In the case of complete C21 solubilization (i.e. no particles were visible), addition of C21 was performed until a maximum API concentration of 100 mg/g was attained.
# After confirming that the saturation point had been reached, or after reaching the maximum API concentration of 100 mg/g, sampling of the mixtures were performed after two (T2) and five (T5) days of stirring.
# At each tirnepoint, and for each excipient, sampling was performed. The samples were filtered prior to assaying to determine the C21 sodium salt solubility in each excipient.
# Two analytical samples were prepared from the filtrate obtain a mean value.
# A Waters UPLC Acquity system (CSH C18; 100×2.1 mm×1.7 μm) with a UV and a DED detector was used to quantitatively determine solubility. The following chromatograhpic conditions were applied: (A) mobile phase water with 003% TFA, (6) acetonitrile with 0.03% TFA, with gradient, flow rate 0.5 mL/min, temperature 40° C., run time 24 minutes, injection volume 2 μL at room temperature.
compound,measurement,setting,value
"CCCCOC(=O)NS(=O)(=O)c1sc(CC(C)C)cc1-c1ccc(Cn2ccnc2)cc1 [C21 sodium salt, N-butyloxycarbonyl-3-(4-imidazol-1-ylmethylphenyl)-5-iso-butylthiophene-2-sulfonamide]",C21 Mean Solubility T5 Assay,"Fasted Simulated Intestinal Fluid (FaSSIF), five days, room temperature",10.4 mg/g
same,C21 Mean Solubility T2 Assay,"Fasted Simulated Intestinal Fluid (FaSSIF), two days, room temperature",10.4 mg/g
same,C21 Mean Solubility T5 Assay,"Fed Simulated Intestinal Fluid (FeSSIF), five days, room temperature",0.6 mg/g
same,C21 Mean Solubility T2 Assay,"Fed Simulated Intestinal Fluid (FeSSIF), two days, room temperature",0.3 mg/g
same,C21 Mean Solubility T5 Assay,"Gelucire 43/01, five days, 60° C.",0.0 mg/g
same,C21 Mean Solubility T2 Assay,"Gelucire 43/01, two days, 60° C.",0.0 mg/g
same,C21 Mean Solubility T5 Assay,"Gelucire 44/14, five days, 60° C.",43.9 mg/g
same,C21 Mean Solubility T2 Assay,"Gelucire 44/14, two days, 60° C.",44.1 mg/g
same,C21 Mean Solubility T5 Assay,"Glyceryl monolinoleate (Maisine CC), five days, room temperature",60.4 mg/g
same,C21 Mean Solubility T2 Assay,"Glyceryl monolinoleate (Maisine CC), two days, room temperature",61.4 mg/g
same,C21 Mean Solubility T5 Assay,"Glyceryl monooleate (Peceol), five days, room temperature",82.2 mg/g
same,C21 Mean Solubility T2 Assay,"Glyceryl monooleate (Peceol), two days, room temperature",82.3 mg/g
same,solubility,"Labrafil M2130CS, at 60° C.",around 14 mg/g
same,C21 Mean Solubility T5 Assay,"Lauryl polyoxyl-6-glycerides (Labrafil M 2130 CS), five days, 60° C.",13.5 mg/g
same,C21 Mean Solubility T2 Assay,"Lauryl polyoxyl-6-glycerides (Labrafil M 2130 CS), two days, 60° C.",13.9 mg/g
same,C21 Mean Solubility T5 Assay,"Linoleoyl polyoxyl-6-glycerides (Labrafil M 2125 CS), five days, room temperature",21.1 mg/g
same,C21 Mean Solubility T2 Assay,"Linoleoyl polyoxyl-6-glycerides (Labrafil M 2125 CS), two days, room temperature",22.0 mg/g
same,C21 Mean Solubility T5 Assay,"Medium chain triglycerides (Miglyol 812N), five days, room temperature",0.0 mg/g
same,C21 Mean Solubility T2 Assay,"Medium chain triglycerides (Miglyol 812N), two days, room temperature",0.0 mg/g
same,C21 Mean Solubility T5 Assay,"Oleoyl polyoxyl-6-glycerides (Labrafil M 1944 CS), five days, room temperature",20.1 mg/g
same,C21 Mean Solubility T2 Assay,"Oleoyl polyoxyl-6-glycerides (Labrafil M 1944 CS), two days, room temperature",19.5 mg/g
same,C21 Mean Solubility T5 Assay,"Polyoxyethylene (20) sorbitan monooleate (Tween 80), five days, room temperature",84.8 mg/g
same,C21 Mean Solubility T2 Assay,"Polyoxyethylene (20) sorbitan monooleate (Tween 80), two days, room temperature",85.2 mg/g
same,C21 Mean Solubility T5 Assay,"Propylene glycol monocaprylate (Capryol PGMC), five days, room temperature",7.1 mg/g
same,C21 Mean Solubility T2 Assay,"Propylene glycol monocaprylate (Capryol PGMC), two days, room temperature",7.1 mg/g
same,C21 Mean Solubility T5 Assay,"Propylene glycol monolaurate (Lauroglycol 90), five days, room temperature",12.4 mg/g
same,C21 Mean Solubility T2 Assay,"Propylene glycol monolaurate (Lauroglycol 90), two days, room temperature",12.4 mg/g
same,C21 Mean Solubility T5 Assay,"Refined corn oil (Henry Lamotte), five days, room temperature",0.0 mg/g
same,C21 Mean Solubility T2 Assay,"Refined corn oil (Henry Lamotte), two days, room temperature",0.0 mg/g
same,C21 Mean Solubility T5 Assay,"Refined sesame oil (Henry Lamotte), five days of stirring, room temperature",0.2 mg/g
same,C21 Mean Solubility T2 Assay,"Refined sesame oil (Henry Lamotte), two days of stirring, room temperature",0.2 mg/g
same,C21 Mean Solubility T5 Assay,"Sorbitan monooleate (Montane 80), five days, room temperature",61.5 mg/g
same,C21 Mean Solubility T2 Assay,"Sorbitan monooleate (Montane 80), two days, room temperature",61.6 mg/g
same,C21 Mean Solubility T5 Assay,"Sorbitan trioleate (Span 85), five days, room temperature",12.1 mg/g
same,C21 Mean Solubility T2 Assay,"Sorbitan trioleate (Span 85), two days, room temperature",15.1 mg/g
same,C21 Mean Solubility T5 Assay,"Soya oil (Henry Lamotte), five days, room temperature",0.0 mg/g
same,C21 Mean Solubility T2 Assay,"Soya oil (Henry Lamotte), two days, room temperature",0.0 mg/g
same,C21 Mean Solubility T5 Assay,"Triacetin (Kollisolv GTA), five days, room temperature",0.3 mg/g
same,C21 Mean Solubility T2 Assay,"Triacetin (Kollisolv GTA), two days, room temperature",0.2 mg/g
same,solubility in words,triglyceride-based excipients,essentially insoluble

# — US20230149362A1, “NEW CAPSULE COMPOSITION FOR PERORAL ADMINISTRATION” (Vicore Pharma AB, priority 2020, published 2023)
